Values of other authors in patent US8329227B2, “Compositions for improving mental performance” (Factor Nutrition Labs, LLC, priority 2001, dated 2012).

Key:
[1] = PS supplementation
[2] = 200 micrograms in four divided doses, fifty patients; placebo thirty-six percent
[3] = healthy volunteers aged 25-40
[4] = high or low dose versus placebo, 203 patients

## phosphatidyl serine [PS]
[1]
  improvement in learning ability and memory tasks: 15%

## C/C=C1\[C@H]2C=C(C)C[C@]1(N)c1ccc(=O)[nH]c1C2 [huperzine A, Huperzine A]
[2]
  people with improvements in memory, cognitive function and behavior: Fifty-eight

## CCOC(=O)C1=C[C@]2(CC)CCCN3CCc4c(n1c1ccccc41)[C@@H]32 [vinpocetine]
[3]
  memory (Steinberg Memory Test): significant memory improvement
[4]
  cognitive performance and overall quality of life: Significantly greater improvements
Epileptic patients
  patients with reduced frequency or complete elimination of epileptic seizures: twenty of the thirty-one
human, in vivo
  tolerability in clinical studies: well tolerated
